Laboratory results as given in patent US8101159B2, “In vivo methods of identifying compounds which target suppressed cancer cells” (The Board of Regents of the University of Oklahoma, priority 2005, dated 2012).

Assays:
suppressed cancer cells = test: Library screen and dose-response, cells on normal matrix vs cells on plastic; assay type: cell-based; settings: FIGS. 3A, 3B, 6A-6C
Experimental: Screening of compounds. The National Cancer Institute Developmental Therapeutics Program (NCI DTP) diversity set of 1990 compounds1 was obtained by material transfer agreement and was diluted to a final concentration of 166.7 μM in serum-containing media and placed onto cells for 72 hours at 37° C. and 5% CO2. A marker of cell proliferation using the substrate 5-carboxyfluorescein diacetate acetoxymethyl ester (CFDA-AM) cleaved to fluorescein by non-specific cellular esterases was used. Briefly, media containing a final concentration of 5 μM CFDA-AM (Molecular Probes, Eugene, Oreg.) was added in PBS for two h at 37° C. Plates were then read by a FLUOstar Optima plate reader (BMG LABTECH, Durham, N.C.) using 385 nm excitation, 428 nm emission filter.
(§1) Dose-response relations of lead compounds. To 100 μl media on cells was added 100 μl of a 2× (666.7 μM) stock of either doxorubicin, tetrandrine or o-cresolphthalein in completed media in a single column in a 96-well plate. 1:3 dilutions were made from this highest dose by removing 66.7 μl into the next column of cells containing 133 μl media. Cells were incubated with drug for 72 hours, then the CFDA-AM assay completed as described above.
(§2) Drug screening. The percent inhibition of cell proliferation (as determined by CFDA-AM cleavage) as compared to untreated cells was calculated for each drug in the wells of plates. The ratio of percent inhibition of the same drug of cells grown on SISgel as compared to non-confluent monolayers also was calculated. All library compounds were screened twice for consistency.
(§3) Dose-response relations. Data were graphed as percent inhibition of proliferation as compared to untreated cells and from this EC50 values calculated using sigmoidal dose-response non-linear regression analysis (GraphPad Prism 4.0 software, San Diego, Calif.). Dose-response relation data were compared to one another using two-way ANOVA with Bonferroni post-test (GraphPad Prism 4.0 software, San Diego, Calif.).
SISgel (90 μl) is added to wells of a 96-well plate and allowed to gel. Cancer cells in 50 μl of nutrient (such as, for example, J82 bladder cancer cell, RT4 cancer cells, TCCSUP cancer cells, 5637 cancer cells, MDA-MB-468 breast cancer cells, or B16-F10 skin tumor (or any metastatic murine melanoma)) are added to each well and allowed to attach and grow. After 24 hours, the test compounds are added to wells at 10 μM concentration. The cells are allowed to grow in the presence of the test compound for 24 hours, at which time the number of cells (or survival or mortality) are estimated by a fluorometric method. In one embodiment, the fluorometric method is an assay performed using an esterase substrate, 5-carboxyfluorescein diacetate acetoxymethyl ester (CFDA) (available from Molecular Probes, Eugene, Oreg., USA), however, any suitable assay for measuring cell survival or mortality known by those of ordinary skill in the art may be used. Examples of fluorometers which can be used include, but are not limited to, FLUOStar Optima plate reader (BMG Biotech), FL600 fluorescent plate reader (Bio-Tek Instruments), Victor2 plate reader (Wallac), FluoroCount BF10000 fluorescent microplate reader (Packard), CytoFluor® 4000 (Applied Biosystems), Bio-Tek Synergy, BMG FLUOstar Galaxy and OPTIMA, PerkinElmer Victor™, PerkinElmer HTS 7000, TECAN SpectraFluor Plus, Thermo LabSystems Fluoroskan Ascent, and the like.
The cell number results are compared to those observed in cells grown conventionally on plastic in nearly confluent monolayers that show approximately the same growth rate as the cells on SISgel. […] In other embodiments, the ratio used may be, for example, less than two fold or greater than two fold as long as the cell number or survival on non-suppressing cell support matrix is greater than the number of cells on the suppressing cell support matrix. Preferably, each positive result is then confirmed by a full dose-response curve. […]

B16-F10 cells = test: Complete dose response, cells in SISgel vs monolayers or Matrigel; assay type: cell-based, murine; settings: FIGS. 9A-9B
Experimental: as §1, §3
(§4) SISgel (90 μl) is added to wells of a 96-well plate and allowed to gel. […] Examples of fluorometers which can be used include, but are not limited to, FLUOStar Optima plate reader (BMG Biotech), FL600 fluorescent plate reader (Bio-Tek Instruments), Victor2 plate reader (Wallac), FluoroCount BF10000 fluorescent microplate reader (Packard), CytoFluor® 4000 (Applied Biosystems), Bio-Tek Synergy, BMG FLUOstar Galaxy and OPTIMA, PerkinElmer Victor™, PerkinElmer HTS 7000, TECAN SpectraFluor Plus, Thermo LabSystems Fluoroskan Ascent, and the like. […]

[1] = system: J82 metastatic bladder cancer cells; test: In vivo flank xenograft, GFP-tagged cells co-injected with suppressive SISgel; settings: nude mice, 35 mg/kg Monday, Wednesday and Friday from day 8
Experimental: Flank xenograft model. J82 cells stably expressing green fluorescent protein (GFP) were prepared as follows. pLEGFP-C1 retrovirus (Clontech, Mountain View, Calif.) was co-transfected with the pVSV-G vector (Clontech, Mountain View, Calif.) which contains a viral envelope gene into the packaging cell line GP2-293 (Clontech, Mountain View, Calif.). Supernatant from the packaging cells containing the infective virus was collected every 24 hours for 4 days. Fluorescent target cells were made by infecting J82s, a urothelial transitional cell carcinoma cell line (ATCC, Manassas, Va.), with 1 ml of fresh, virus containing, supernatant/well containing 100,000 target cells along with 8 μg/ml of polybrene (Sigma Aldrich, St. Louis, Mo.). Each application of viral supernatant was filtered through a 0.4 μM syringe filter before application to target cells. Supernatant was removed and fresh virus containing media replenished on target cells every 24 hours until 4 changes of media were completed. […]
(§5) In sterile 500 μl centrifuge tubes, placed on ice, 100 μl of cell suspension was mixed with either 100 μl ice-cold prepared SISgel or ice-cold Matrigel and mixed well. […] The area and intensity of the tumor was measured using Adobe Photoshop by first selecting the tumor area, then counting pixels above a threshold selected to eliminate background, non-tumor areas. The integrated intensity was calculated by multiplying the average intensity of detected pixels by the number of pixels detected.
(§6) In this experiment, the activities of three compounds identified by the in vitro screening method were compared against both ECM-suppressed (SISgel, right) and actively growing (Matrigel, left) J82 metastatic bladder cancer cells. […] When tumors were first visible fluorescently (8 days after implantation), 35 mg/kg Bordeaux Red, tetrabromofluorescein, or Wool Violet 2R were injected Monday, Wednesday and Friday and tumor size was measured using fluorescence microscopy. A representative time course of fluorescence imaging is shown from a single animal for each treatment group. […]

[2] = system: J82 metastatic bladder cancer cells; test: In vivo flank xenograft, GFP-tagged cells co-injected with permissive Matrigel; settings: nude mice; for activity against actively growing cells in vivo (fluorescence imaging): 35 mg/kg Monday, Wednesday and Friday from day 8
Experimental: Flank xenograft model. J82 cells stably expressing green fluorescent protein (GFP) were prepared as follows. pLEGFP-C1 retrovirus (Clontech, Mountain View, Calif.) was co-transfected with the pVSV-G vector (Clontech, Mountain View, Calif.) which contains a viral envelope gene into the packaging cell line GP2-293 (Clontech, Mountain View, Calif.). Supernatant from the packaging cells containing the infective virus was collected every 24 hours for 4 days. Fluorescent target cells were made by infecting J82s, a urothelial transitional cell carcinoma cell line (ATCC, Manassas, Va.), with 1 ml of fresh, virus containing, supernatant/well containing 100,000 target cells along with 8 μg/ml of polybrene (Sigma Aldrich, St. Louis, Mo.). Each application of viral supernatant was filtered through a 0.4 μM syringe filter before application to target cells. Supernatant was removed and fresh virus containing media replenished on target cells every 24 hours until 4 changes of media were completed. Virus containing media was replaced with Minimum Essential Media, MEM, (Life Technologies, Carlsbad, Calif.) containing 1% nonessential amino acids, 1% L-glutamine, 1% sodium pyruvate and 10% Fetal Calf Serum, and cells were allowed to grow to 90% confluence. Stable transfects were selected through sequential sorting and enrichment of fluorescent cells using flow cytometry.
as §5, with “well. The mix was immediately injected into either the right or left flank of a 5-week old nude mouse, nu/nu-nuBR, (Charles River Laboratories, Wilmington, Mass.). Caliper measurements of tumor size were taken every week for the length of the study as were fluorescent images.” for “well.”
as §6

MDA-MB-468 cells = test: Complete dose response, cells in SISgel vs monolayers or Matrigel; assay type: cell-based; settings: FIGS. 8A-8B
Experimental: as §1, §3, §4

J82 cells = test: Cell proliferation dose-response (CFDA-AM), cells on SISgel vs non-confluent monolayers; assay type: cell-based
Experimental: Plating of cells for screening. Three-dimensional gel cultures with Matrigel were made by layering 50 μl of ice cold Matrigel into wells of a Costar 3610 white, clear bottom 96-well plates (Corning, Corning, N.Y.) allowed to gel at 37° C. Confluent cells were trypsinized with 1 ml 0.25% trypsin −1 mM EDTA, and 30,000 were added to wells containing the gelled matrices. The cells were fed with 50 μl of their respective media containing 10% fetal calf serum. To establish non-confluent monolayers, cells were plated at a cell density of 10,000/well 24 hours prior to drug treatments.
Screening of compounds. […] Plates were then read by a FLUOstar Optima plate reader (BMG LABTECH, Durham, N.C.) using 385 nm excitation, 428 nm emission filter. […]
as §2, with “All library compounds were screened twice for consistency.” left out
Dose-response relations. Data were graphed as percent inhibition of proliferation as compared to untreated cells and from this EC50 values calculated using sigmoidal dose-response non-linear regression analysis (GraphPad Prism 4.0 software, San Diego, Calif.). […]

| Molecule | sensitivity of cells on normal matrix compared with cells grown on plastic (suppressed cancer cells) | EC50 of cells grown in SISgel compared with monolayers or Matrigel (B16-F10 cells) | effect on ECM-suppressed cells in vivo (fluorescence imaging) [1] | rate of tumor growth in Matrigel treated animals compared with controls ([2]; 35 mg/kg) | activity against actively growing cells in vivo (fluorescence imaging) [2] | EC50 of cells grown in SISgel compared with monolayers or Matrigel (MDA-MB-468 cells) | activity against cancer cells under suppressing conditions compared with non-suppressing cell culture (dose-response, FIG. 2) (J82 cells) |
| --- | --- | --- | --- | --- | --- | --- | --- |
| CC1=C(N2CC2)C(=O)C(CO)=C(N2CC2)C1=O [NSC 697726] | several fold increased sensitivity | – | – | – | – | – | – |
| O=C1OC2(c3ccc(O)cc3Oc3cc(O)ccc32)c2c(Br)c(Br)c(Br)c(Br)c21 [3,4,5,6-tetrabromofluorescein] | several fold increased sensitivity | lower EC50 values | caused disappearance of the cells | weak inhibition of tumor growth | none of the three compounds had any activity | lower EC50 values | – |
| CC(C)=CCC(OC(=O)C=C(C)C)C1=CC(=O)c2c(O)ccc(O)c2C1=O (stereo not drawn) [NSC140377] | several fold increased sensitivity | – | – | – | – | – | – |
| Cc1cc(C)c(NC(=O)/C=C/c2ccccc2)c(C)c1 [NSC 191384] | several fold increased sensitivity | – | – | – | – | – | more active against cancer cells grown under the suppressing conditions |
| O=S(=O)([O-])c1ccc2c(N=Nc3cccc4ccccc34)c(O)c(S(=O)(=O)[O-])cc2c1.[Na+].[Na+] [Bordeaux Red] | several fold increased sensitivity | lower EC50 values | caused disappearance of the cells | – | none of the three compounds had any activity | lower EC50 values | – |
| Wool Violet 2R | several fold increased sensitivity | – | caused disappearance of the cells | – | none of the three compounds had any activity | – | – |
